Measurements: US8993606B2, “Oral formulations for treating metal overload” (FerroKin BioSciences, Inc., priority 2011, dated 2015)

Test system: patients with transfusional iron overload
Experiment: Example 11: efficacy study, R2 liver iron concentration per FerriScan MRI (text: mg/g liver dw)
Assay type: in vivo, human
Experimental: The goal of this experiment was to: 1. evaluate the safety and tolerability based on clinical assessments of two doses (16 and 32 mg/kg/d) of Compound 1 when administered daily for 24 weeks to patients with transfusional iron overload; 2. identify a differential response between dose groups in liver iron concentration determined by magnetic resonance imaging (MRI) after 24 weeks of dosing; and 3. assess the safety and efficacy activity of Compound 1 when administered daily for up to 96 weeks.
This experiment is an open-label, randomized study of two dose levels (16 and 32 mg/kg/d) of Compound 1 administered once daily for 24 weeks to eligible patients with transfusional iron overload requiring chelation therapy, with a dosing extension of 72 additional weeks.
Patients were assigned to one of two strate: “high” or “low” transfusion burden based on the average iron intake of the six transfusion sessions. Patients within each transfusion burden groups were randomized to one of two Compound 1 treatment arms: 16 mg/kg/d (16 mpk) or 32 mg/kg/d (32 mpk). The stratification followed by randomization to treatment arms helps to ensure an equal distribution of patients with “high” and “low” transfusion burdens to the high or low dose of Compound 1. Each treatment arm received one dose of Compound 1 daily for 24 weeks.
At the conclusion of the 24 week dosing period, patients who qualify and consent to continue treatment continued for an additional 72 weeks of Compound 1 dosing.
The inclusion of 25 patients in each treatment group provided a statistical power of 0.80 to detect, within 6 months, an LIC difference (normalized for initial LIC) of 3 mg/g dry weight between the two dose groups as determined by MRI. Baseline characteristics between dose groups were compared using Fisher extract test or Wilcoxon rank sum test as appropriate. The change in baseline to week 12, 24, and 72 values for all pharmacodynamics parameters were analyzed by an ANCOVA model with main effect for treatment group with baselines value for the corresponding parameters and transfusion burdon (iron input) during the study and baseline liver iron concentration as covariates comparing the two active treatment groups. T2* values were natural log transformed and summarized as the geometric mean (the antilog of the mean of the log data) plus or minus the co-efficient of variation (CV) defined as square root of eMSE where MSE is defined as the mean square error and subject to ANCOVA setting the p value as the threshold for statistical significance at 0.05 (confidence level of 95%).
Conducted was a multicenter, randomized, open-label study of adult subjects with documented transfusional iron overload in need of chelation therapy. Transfusional iron overload was defined as LIC by R2 (FerriScan®) magnetic resonance imaging (MRI)≧3.5 mg/g liver dw or serum ferritin>500 ng/mL. Subjects received investigational product for 24 weeks with an extension of 72 weeks for the evaluation of long-term safety and efficacy. The 24-week and 48-week pharmacodynamics results are described in this section. A total of 51 subjects enrolled and 49 completed the initial 24-week treatment period.

[1] = randomized to 16 mg/kg/d, dose adjustments after week 24
[2] = randomized to 32 mg/kg/d, dose adjustments after week 24

COCCOCCOCCOc1cccc(C2=N[C@@](C)(C(=O)O)CS2)c1O [Compound 1, (S)-4,5-Dihydro-2-[2-hydroxy-3-(3,6,9-trioxadecyloxy)phenyl]-4-methyl-4-thiazolecarboxylate magnesium hydroxide]
R2 LIC Change from Baseline to Week 12, Mean (SD) (16 mg/kg/d): 2.68 (4.050) | R2 LIC Change from Baseline to Week 12, Median (16 mg/kg/d): 0.90 | R2 LIC Change from Baseline to Week 24, Mean (SD) (16 mg/kg/d): 3.08 (5.552) | R2 LIC Change from Baseline to Week 24, Median (16 mg/kg/d): 1.10 | R2 LIC Week 12, Mean (SD) (16 mg/kg/d): 15.90 (9.446) | R2 LIC Week 12, Median (16 mg/kg/d): 11.70 | R2 LIC Week 24, Mean (SD) (16 mg/kg/d): 16.31 (10.570) | R2 LIC Week 24, Median (16 mg/kg/d): 11.50 | R2 LIC Change from Baseline to Week 12, Mean (SD) (32 mg/kg/d): −0.22 (2.827) | R2 LIC Change from Baseline to Week 12, Median (32 mg/kg/d): 0.10 | R2 LIC Change from Baseline to Week 24, Mean (SD) (32 mg/kg/d): −0.27 (4.950) | R2 LIC Change from Baseline to Week 24, Median (32 mg/kg/d): 0.20 | R2 LIC Week 12, Mean (SD) (32 mg/kg/d): 13.59 (8.684) | R2 LIC Week 12, Median (32 mg/kg/d): 10.70 | R2 LIC Week 24, Mean (SD) (32 mg/kg/d): 13.25 (8.510) | R2 LIC Week 24, Median (32 mg/kg/d): 9.30 | LIC from baseline to Weeks 12 and 24 (16 mpk): statistically significant increase | LIC from baseline at the first 24 weeks (32 mpk): remained relatively unchanged | R2 LIC Change from Baseline to Week 12, Mean (SD) (Total (both dose groups)): 1.20 (3.740) | R2 LIC Change from Baseline to Week 12, Median (Total (both dose groups)): 0.70 | R2 LIC Change from Baseline to Week 24, Mean (SD) (Total (both dose groups)): 1.37 (5.467) | R2 LIC Change from Baseline to Week 24, Median (Total (both dose groups)): 0.50 | R2 LIC Change from Baseline to Week 48, Mean (SD) (Total (both dose groups)): −0.63 (3.632) | R2 LIC Change from Baseline to Week 48, Median (Total (both dose groups)): −0.20 | R2 LIC Change from Baseline to Week 72, Mean (SD) (Total (both dose groups)): −0.69 (4.975) | R2 LIC Change from Baseline to Week 72, Median (Total (both dose groups)): −0.80 | R2 LIC Week 12, Mean (SD) (Total (both dose groups)): 14.72 (9.046) | R2 LIC Week 12, Median (Total (both dose groups)): 11.10 | R2 LIC Week 24, Mean (SD) (Total (both dose groups)): 14.75 (9.599) | R2 LIC Week 24, Median (Total (both dose groups)): 11.00 | R2 LIC Week 48, Mean (SD) (Total (both dose groups)): 11.74 (7.813) | R2 LIC Week 48, Median (Total (both dose groups)): 8.80 | R2 LIC Week 72, Mean (SD) (Total (both dose groups)): 11.31 (7.904) | R2 LIC Week 72, Median (Total (both dose groups)): 8.70 | mean change from baseline LIC (Week 48, 19 subjects randomized to 16 mg/kg/day): 0.1 mg/g | mean change from baseline LIC (Week 48, 20 subjects originally randomized to 32 mg/kg/day): -1.3 mg/g | difference in the mean change from baseline between treatment groups (at 24 weeks, p<0.03): 3.4 mg/g | dose-response in iron chelating capacity (between 16 and 32 mpk, first 24-weeks): clear dose-response | LIC from Week 24 (doses of 32 mpk and greater): reduction in LIC | subjects with lower LIC at 24 weeks compared to Baseline (high dose group (32 mg/kg/day)): 11 of 25 | mean change in LIC (high dose group (32 mg/kg/day), 24 weeks): −0.3 mg/g liver (dw) | subjects with lower LIC at 24 weeks compared with Baseline (low dose group (16 mg/kg/day)): 7 of 24 | mean change in LIC (net gain) (low dose group (16 mg/kg/day), 24 weeks): 3.1 mg/g liver (dw) | R2 LIC Change from Baseline to Week 48, Mean (SD) [1]: 0.09 (4.015) | R2 LIC Change from Baseline to Week 48, Median [1]: 0.00 | R2 LIC Change from Baseline to Week 72, Mean (SD) [1]: 0.52 (3.654) | R2 LIC Change from Baseline to Week 72, Median [1]: 0.50 | R2 LIC Week 48, Mean (SD) [1]: 11.68 (6.369) | R2 LIC Week 48, Median [1]: 9.30 | R2 LIC Week 72, Mean (SD) [1]: 10.74 (6.373) | R2 LIC Week 72, Median [1]: 9.40 | R2 LIC Change from Baseline to Week 48, Mean (SD) [2]: −1.32 (3.177) | R2 LIC Change from Baseline to Week 48, Median [2]: −0.90 | R2 LIC Change from Baseline to Week 72, Mean (SD) [2]: −1.83 (5.853) | R2 LIC Change from Baseline to Week 72, Median [2]: −1.80 | R2 LIC Week 48, Mean (SD) [2]: 11.81 (9.145) | R2 LIC Week 48, Median [2]: 7.70 | R2 LIC Week 72, Mean (SD) [2]: 11.84 (9.307) | R2 LIC Week 72, Median [2]: 8.70
